Source: PubChem BioAssay (NCI)
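Test compounds were applied to cells in 96-well plates for 48 hours at 5 doses. TGI: concentration producing complete growth inhibition.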

Key:
Experiment in all cases: DTP human tumour cell line panel, 48 h
[1] = tested on: UACC-257 melanoma
[2] = tested on: ACHN renal
[3] = tested on: SNB-19 CNS
[4] = tested on: SR leukemia
[5] = tested on: HCT-116 colon
[6] = tested on: OVCAR-8 ovarian
[7] = tested on: SNB-75 CNS
[8] = tested on: NCI/ADR-RES ovarian
[9] = tested on: SK-OV-3 ovarian
[10] = tested on: SW-620 colon
[11] = tested on: HT29 colon
[12] = tested on: MDA-MB-231 breast
[13] = tested on: SF-268 CNS
[14] = tested on: HCC-2998 colon
[15] = tested on: MOLT-4 leukemia
[16] = tested on: UACC-62 melanoma
[17] = tested on: SK-MEL-2 melanoma
[18] = tested on: OVCAR-3 ovarian
[19] = tested on: MALME-3M melanoma
[20] = tested on: BT-549 breast
[21] = tested on: SN12C renal
[22] = tested on: OVCAR-5 ovarian
[23] = tested on: A549 NSCLC
[24] = tested on: SK-MEL-28 melanoma
[25] = tested on: HOP-62 NSCLC
[26] = tested on: LOX IMVI melanoma
[27] = tested on: COLO 205 colon
[28] = tested on: SF-539 CNS
[29] = tested on: M14 melanoma
[30] = tested on: MDA-MB-435
[31] = tested on: HCT-15 colon
[32] = tested on: U251 CNS
[33] = tested on: NCI-H23 lung
[34] = tested on: UO-31 renal
[35] = tested on: SF-295 CNS
[36] = tested on: K-562 leukemia
[37] = tested on: PC-3 prostate
[38] = tested on: RXF 393 renal
[39] = tested on: EKVX NSCLC
[40] = tested on: TK-10 renal
[41] = tested on: CCRF-CEM leukemia
[42] = tested on: CAKI-1 renal
[43] = tested on: MCF7 breast
[44] = tested on: IGROV1 ovarian
[45] = tested on: 786-0 renal
[46] = tested on: RPMI-8226 leukemia
[47] = tested on: A498 renal
[48] = tested on: DU-145 prostate
[49] = tested on: NCI-H522 lung
[50] = tested on: NCI-H460 lung
[51] = tested on: MDA-N
[52] = tested on: KM12 colon
[53] = tested on: OVCAR-4 ovarian
[54] = tested on: NCI-H226 lung
[55] = tested on: SK-MEL-5 melanoma
[56] = tested on: T-47D breast
[57] = tested on: HS 578T breast
[58] = tested on: HOP-92 NSCLC
[59] = tested on: HL-60(TB) leukemia

CC1(C)OCC(C2OC(OC(=O)c3ccc(C(F)(F)F)cc3)C3OC(C)(C)OC23)O1 (stereo unspecified)
TGI [1]: > 77.5 µM
TGI [2]: > 77.5 µM
TGI [3]: > 77.5 µM
TGI [4]: > 77.5 µM
TGI [5]: > 77.5 µM
TGI [6]: > 77.5 µM
TGI [7]: > 77.5 µM
TGI [8]: > 77.5 µM
TGI [9]: > 77.5 µM
TGI [10]: > 77.5 µM
TGI [11]: > 77.5 µM
TGI [12]: > 77.5 µM
TGI [13]: > 77.5 µM
TGI [14]: > 77.5 µM
TGI [15]: > 77.5 µM
TGI [16]: > 77.5 µM
TGI [17]: > 77.5 µM
TGI [18]: > 77.5 µM
TGI [19]: > 77.5 µM
TGI [20]: > 77.5 µM
TGI [21]: > 77.5 µM
TGI [22]: > 77.5 µM
TGI [23]: > 77.5 µM
TGI [24]: > 77.5 µM
TGI [25]: > 77.5 µM
TGI [26]: > 77.5 µM
TGI [27]: > 77.5 µM
TGI [28]: > 77.5 µM
TGI [29]: > 77.5 µM
TGI [30]: > 77.5 µM
TGI [31]: > 77.5 µM
TGI [32]: > 77.5 µM
TGI [33]: > 77.5 µM
TGI [34]: > 77.5 µM
TGI [35]: > 77.5 µM
TGI [36]: > 77.5 µM
TGI [37]: > 77.5 µM
TGI [38]: > 77.5 µM
TGI [39]: > 77.5 µM
TGI [40]: > 77.5 µM
TGI [41]: > 77.5 µM
TGI [42]: > 77.5 µM
TGI [43]: > 77.5 µM
TGI [44]: > 77.5 µM
TGI [45]: > 77.5 µM
TGI [46]: > 77.5 µM
TGI [47]: > 77.5 µM
TGI [48]: > 77.5 µM
TGI [49]: > 77.5 µM
TGI [50]: > 77.5 µM
TGI [51]: > 77.5 µM
TGI [52]: > 77.5 µM
TGI [53]: > 77.5 µM
TGI [54]: > 77.5 µM
TGI [55]: > 77.5 µM

CN(C)c1nc2n(CCO)ccnc-2c(=O)n1
TGI [1]: > 100 µM
TGI [2]: > 100 µM
TGI [3]: > 100 µM
TGI [4]: > 100 µM
TGI [5]: > 100 µM
TGI [56]: > 100 µM
TGI [6]: > 100 µM
TGI [7]: > 100 µM
TGI [8]: > 100 µM
TGI [9]: > 100 µM
TGI [10]: > 100 µM
TGI [11]: > 100 µM
TGI [12]: > 100 µM
TGI [13]: > 100 µM
TGI [14]: > 100 µM
TGI [15]: > 100 µM
TGI [16]: > 100 µM
TGI [17]: > 100 µM
TGI [57]: > 100 µM
TGI [18]: > 100 µM
TGI [19]: > 100 µM
TGI [20]: > 100 µM
TGI [21]: > 100 µM
TGI [22]: > 100 µM
TGI [23]: > 100 µM
TGI [24]: > 100 µM
TGI [25]: > 100 µM
TGI [26]: > 100 µM
TGI [27]: > 100 µM
TGI [28]: > 100 µM
TGI [29]: > 100 µM
TGI [30]: > 100 µM
TGI [31]: > 100 µM
TGI [32]: > 100 µM
TGI [33]: > 100 µM
TGI [34]: > 100 µM
TGI [35]: > 100 µM
TGI [36]: > 100 µM
TGI [37]: > 100 µM
TGI [58]: > 100 µM
TGI [38]: > 100 µM
TGI [39]: > 100 µM
TGI [40]: > 100 µM
TGI [41]: > 100 µM
TGI [42]: > 100 µM
TGI [44]: > 100 µM
TGI [45]: > 100 µM
TGI [46]: > 100 µM
TGI [47]: > 100 µM
TGI [48]: > 100 µM
TGI [49]: > 100 µM
TGI [50]: > 100 µM
TGI [51]: > 100 µM
TGI [52]: > 100 µM
TGI [53]: > 100 µM
TGI [54]: > 100 µM
TGI [55]: > 100 µM

CS(=O)(=O)Nc1ccc2c(c1)N(S(C)(=O)=O)CC2COS(C)(=O)=O (stereo unspecified)
TGI [1]: > 100 µM
TGI [2]: > 100 µM
TGI [4]: 93.2 µM
TGI [5]: > 100 µM
TGI [56]: > 100 µM
TGI [59]: 88.3 µM
TGI [6]: > 100 µM
TGI [7]: > 100 µM
TGI [8]: > 100 µM
TGI [10]: > 100 µM
TGI [11]: > 100 µM
TGI [12]: > 100 µM
TGI [14]: > 100 µM
TGI [15]: > 100 µM
TGI [16]: > 100 µM
TGI [17]: 71.7 µM
TGI [57]: > 100 µM
TGI [18]: > 100 µM
TGI [19]: > 100 µM
TGI [20]: > 100 µM
TGI [21]: > 100 µM
TGI [22]: > 100 µM
TGI [23]: > 100 µM
TGI [24]: > 100 µM
TGI [25]: 70.9 µM
TGI [26]: > 100 µM
TGI [27]: > 100 µM
TGI [28]: > 100 µM
TGI [30]: > 100 µM
TGI [31]: > 100 µM
TGI [32]: 59.2 µM
TGI [33]: > 100 µM
TGI [34]: > 100 µM
TGI [35]: > 100 µM
TGI [36]: > 100 µM
TGI [37]: > 100 µM
TGI [58]: > 100 µM
TGI [38]: 41.5 µM
TGI [39]: > 100 µM
TGI [40]: > 100 µM
TGI [41]: > 100 µM
TGI [42]: > 100 µM
TGI [44]: > 100 µM
TGI [45]: > 100 µM
TGI [46]: 81.4 µM
TGI [47]: > 100 µM
TGI [48]: > 100 µM
TGI [49]: 43.1 µM
TGI [50]: > 100 µM
TGI [51]: > 100 µM
TGI [52]: > 100 µM
TGI [53]: > 100 µM
TGI [54]: > 100 µM
TGI [55]: 40.7 µM

COc1ccc2c(c1)C(=O)C1(C2)[C@H](c2ccccc2)C2C(=O)c3cc(OC)ccc3C2[C@H]1c1ccccc1 (stereo partly specified)
TGI [1]: > 100 µM
TGI [2]: > 100 µM
TGI [3]: > 100 µM
TGI [4]: > 100 µM
TGI [5]: > 100 µM
TGI [56]: > 100 µM
TGI [59]: > 100 µM
TGI [6]: > 100 µM
TGI [7]: > 100 µM
TGI [8]: > 100 µM
TGI [9]: > 100 µM
TGI [10]: > 100 µM
TGI [11]: > 100 µM
TGI [12]: > 100 µM
TGI [13]: > 100 µM
TGI [14]: > 100 µM
TGI [15]: > 100 µM
TGI [16]: > 100 µM
TGI [57]: > 100 µM
TGI [18]: > 100 µM
TGI [19]: > 100 µM
TGI [20]: > 100 µM
TGI [21]: > 100 µM
TGI [22]: > 100 µM
TGI [23]: > 100 µM
TGI [24]: > 100 µM
TGI [25]: > 100 µM
TGI [26]: > 100 µM
TGI [27]: > 100 µM
TGI [28]: > 100 µM
TGI [29]: > 100 µM
TGI [30]: > 100 µM
TGI [31]: > 100 µM
TGI [32]: > 100 µM
TGI [33]: > 100 µM
TGI [34]: > 100 µM
TGI [35]: > 100 µM
TGI [36]: > 100 µM
TGI [37]: > 100 µM
TGI [58]: > 100 µM
TGI [38]: > 100 µM
TGI [39]: > 100 µM
TGI [40]: > 100 µM
TGI [41]: > 100 µM
TGI [42]: 5.63 µM
TGI [44]: > 100 µM
TGI [45]: > 100 µM
TGI [46]: > 100 µM
TGI [47]: > 100 µM
TGI [48]: > 100 µM
TGI [49]: > 100 µM
TGI [50]: > 100 µM
TGI [51]: > 100 µM
TGI [52]: > 100 µM
TGI [53]: > 100 µM
TGI [54]: > 100 µM
TGI [55]: > 100 µM

CCCCS/C(=C(/C#N)C(N)=O)c1cc2c([nH]1)CCCC2
TGI [1]: 32.4 µM
TGI [2]: 39.7 µM
TGI [3]: 34.4 µM
TGI [5]: 23 µM
TGI [59]: 11.6 µM
TGI [6]: 36.5 µM
TGI [7]: 29.1 µM
TGI [8]: 28.6 µM
TGI [9]: 93.8 µM
TGI [10]: 24.6 µM
TGI [11]: 15 µM
TGI [12]: 30.3 µM
TGI [13]: 26.7 µM
TGI [14]: 26.7 µM
TGI [15]: 38.6 µM
TGI [16]: 22.8 µM
TGI [17]: 34.7 µM
TGI [18]: 36.5 µM
TGI [19]: 23.8 µM
TGI [20]: 27.8 µM
TGI [21]: 43.1 µM
TGI [22]: > 100 µM
TGI [23]: > 100 µM
TGI [24]: 28.2 µM
TGI [25]: 72 µM
TGI [26]: 21.1 µM
TGI [27]: 27.9 µM
TGI [28]: 30 µM
TGI [30]: 11.9 µM
TGI [31]: 21.4 µM
TGI [32]: 31.2 µM
TGI [33]: 36.7 µM
TGI [34]: 25.8 µM
TGI [35]: 28.5 µM
TGI [36]: > 100 µM
TGI [37]: 46.5 µM
TGI [58]: 38.7 µM
TGI [38]: 38.6 µM
TGI [39]: 24.4 µM
TGI [40]: 29 µM
TGI [41]: 48.9 µM
TGI [42]: 29.5 µM
TGI [43]: 50.4 µM
TGI [45]: 24 µM
TGI [46]: 29.6 µM
TGI [47]: 31.4 µM
TGI [48]: 25.4 µM
TGI [50]: 48.3 µM
TGI [51]: 18.3 µM
TGI [52]: 23.5 µM
TGI [53]: 36.1 µM
TGI [54]: 34.7 µM
TGI [55]: 26.7 µM
